Data on two molecules can be found in PMC7859889 (ACS chemical biology, 2020).

Data set [1] concerns HLA-B HiBit cells. In words: CellTiter-Glo. The note with it: for CTG Curve class: cytotoxicity, 4.0 ng/ml IFN-β, 24 hours. A general note: ATP-based viability assays read luminescence as a measure of living cells.
For data set [2], the system named is HLA-B mRNA. In words: HLA-B RT-qPCR tertiary assay. Format: cell-based, human. The note with it: Homo sapiens; for Emax: read-out: RT-qPCR Efficacy; for IC50: read-out: RT-qPCR IC50.
Data set [3] concerns HLA-ABC. In words: HLA-ABC immunofluorescence. Format: cell-based, human. The note with it: Homo sapiens; for Emax: read-out: Immunofluorescence Efficacy; for IC50: read-out: Immunofluorescence IC50.
Data set [4] deals with type I IFN – MHC class I pathway. In words: Average / all assays. The note with it: for IC50: Homo sapiens, read-out: Average IC50. Format: cell-based, human.
The test system of data set [5] is HLA-B HiBit (MHC class I). In words: HLA-B HiBit luminescent reporter assay. The note with it: Homo sapiens, 24 h, read-out: HiBit Efficacy.
Data set [6] deals with HLA and ISG genes. In words: Multi Gene RT-qPCR, gene panel. It counts as cell-based, human. The note with it: 4.0 ng/ml IFN-β plus 50 uM compound, 24 hrs; for effect on HLA and ISG gene expression (in words): C25cl48 cells. Background: Quantitative PCR measures a nucleic acid by following its amplification.
The conditions of data set [7]: cited from earlier work.
In data set [8] the test system is C25cl48 cells. Put plainly: IF cell count cytotoxicity. Format: cell-based, human. The note with it: for Cell count Curve class: IF cell count cytotoxicity, C25cl48 cells.
For data set [9] the following is noted: 37.5 and 50 mg b.i.d. ref 43, 44; cited from earlier work.
The mark [10] stands for this setting: ( ) - efficacy at highest concentration.

Structures can show the parent of a compound that is named as a salt.

A word on the IC50: it is the concentration at which inhibition is half-maximal. Take `CS[C@H]1SC[C@H]2C(=O)N(C)[C@@H](C(C)C)C(=O)OC[C@@H](NC(=O)c3cnc4ccccc4n3)C(=O)N[C@@H](C)C(=O)N(C)[C@@H]1C(=O)N(C)[C@@H](C(C)C)C(=O)OC[C@@H](NC(=O)c1cnc3ccccc3n1)C(=O)N[C@@H](C)C(=O)N2C` [Echinomycin, echinomycin]: the “CTG Curve class” value in [1] is 4. The Emax in data set [2] stood at 112%; in data set [3], 120%; in [5], 100%. Besides, the IC50 in data set [2] came out at 3 nM; in data set [3], 4.1 nM; in data set [4], 6 nM. Besides, the hill slope entry in data set [4] (concentration-response curves) is on record as “ultrasensitive”. The “efficacy in reducing all HLA and ISG genes” value in [6] is on record as more than 99%. For the same molecule, the “effect on HLA and ISG gene expression (in words)” value in [6] is listed as “normalized all genes”. Moreover, the “adverse effects in Phase I clinical trial” value in data set [7] is “nausea, vomiting, reversible liver enzyme abnormalities, and allergic reactions”. The “Cell count Curve class” value in [8] turned out to be 4.
`CCN(CC)Cc1ccc2cc(COC(=O)Nc3ccc(C(=O)NO)cc3)ccc2c1` [Givinostat HCl, Givinostat]: the “CTG Efficacy at highest concentration” value in data set [1] (setting [10]) was “(18) %”. Besides, the “CTG Curve class” value in data set [1] is −3. Moreover, the figures for the Emax in data set [2], in [3] and in data set [5] were 100%, 100% and 82%, respectively. The figures for the IC50 in data set [2], in data set [3] and in [4] were 4100 nM, 260 nM and 1800 nM, respectively. Further, in data set [9], the “safety signal at higher doses” value is listed as “platelet count decrease”. The “efficacy in reducing all HLA and ISG genes” value in [6] is reported as 70–80%. Besides, the “effect on HLA and ISG gene expression (in words)” value in data set [6] is “normalized HLA-A and -B to DMSO levels”. Further, in [6] (compared to IFN-β treated cells), the “decrease of ISGs (IFIT1, ISG15, MX1)” value was ~ 90%. Also, the “Cell count Efficacy at highest concentration” value in [8] (setting [10]) is “(25) %”. The “Cell count Curve class” value in data set [8] was −3.
